How the values were obtained:
lipoamide = compound: NC(=O)CCCCC1CCSS1 [lipoamide]; assay: thermal stability z-score vs DMSO; higher = more thermally stabilized by treatment; conditions: HeLa, lipoamide concentration 100 µM
Procedure: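 Cellular thermal proteome profiling in HeLa cells. Cells were treated with 100 µM lipoamide for 1 h, with or without 1 mM arsenate for a further 1 h, then heated to ten temperatures (37-66.3 °C), and soluble protein was quantified by TMT mass spectrometry relative to 0.1% DMSO controls. The thermal stability score (sum of log2 fold changes minus the abundance score) was transformed to a z-score; mean of n = 3 experiments.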

potassium arsenate = compound: O=[As]([O-])(O)O.[K+] [potassium arsenate]; assay: as above; conditions: HeLa; arsenate concentration 1 mM
Procedure: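 Cellular thermal proteome profiling in HeLa cells treated with 1 mM arsenate for 1 h (DMSO pretreatment), heated to ten temperatures (37-66.3 °C). Soluble protein was quantified by TMT mass spectrometry relative to DMSO controls; the thermal stability score was transformed to a z-score; mean of n = 3 experiments.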

[1] = arsenate co-treatment: 1 mM arsenate 1 h
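Note: each temperature applied for 3 min, abundance score taken as mean log2 fold change at the two lowest temperatures, z-score obtained by mean subtraction and division by SD.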

Sequence of UniProt Q02818 (Q02818 whole entry): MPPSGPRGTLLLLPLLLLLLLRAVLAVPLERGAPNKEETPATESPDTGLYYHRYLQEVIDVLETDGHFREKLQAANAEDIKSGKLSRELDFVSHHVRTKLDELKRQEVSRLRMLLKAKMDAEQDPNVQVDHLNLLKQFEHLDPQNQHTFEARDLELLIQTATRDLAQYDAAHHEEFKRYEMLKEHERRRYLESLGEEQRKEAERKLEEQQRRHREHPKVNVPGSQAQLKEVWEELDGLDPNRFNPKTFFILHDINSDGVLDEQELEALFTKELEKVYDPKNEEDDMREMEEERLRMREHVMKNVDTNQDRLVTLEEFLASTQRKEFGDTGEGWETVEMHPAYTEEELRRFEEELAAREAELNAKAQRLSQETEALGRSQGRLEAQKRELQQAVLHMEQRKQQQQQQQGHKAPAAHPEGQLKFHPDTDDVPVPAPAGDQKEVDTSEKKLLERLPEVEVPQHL
Sequence of UniProt P52948 (P52948 whole entry): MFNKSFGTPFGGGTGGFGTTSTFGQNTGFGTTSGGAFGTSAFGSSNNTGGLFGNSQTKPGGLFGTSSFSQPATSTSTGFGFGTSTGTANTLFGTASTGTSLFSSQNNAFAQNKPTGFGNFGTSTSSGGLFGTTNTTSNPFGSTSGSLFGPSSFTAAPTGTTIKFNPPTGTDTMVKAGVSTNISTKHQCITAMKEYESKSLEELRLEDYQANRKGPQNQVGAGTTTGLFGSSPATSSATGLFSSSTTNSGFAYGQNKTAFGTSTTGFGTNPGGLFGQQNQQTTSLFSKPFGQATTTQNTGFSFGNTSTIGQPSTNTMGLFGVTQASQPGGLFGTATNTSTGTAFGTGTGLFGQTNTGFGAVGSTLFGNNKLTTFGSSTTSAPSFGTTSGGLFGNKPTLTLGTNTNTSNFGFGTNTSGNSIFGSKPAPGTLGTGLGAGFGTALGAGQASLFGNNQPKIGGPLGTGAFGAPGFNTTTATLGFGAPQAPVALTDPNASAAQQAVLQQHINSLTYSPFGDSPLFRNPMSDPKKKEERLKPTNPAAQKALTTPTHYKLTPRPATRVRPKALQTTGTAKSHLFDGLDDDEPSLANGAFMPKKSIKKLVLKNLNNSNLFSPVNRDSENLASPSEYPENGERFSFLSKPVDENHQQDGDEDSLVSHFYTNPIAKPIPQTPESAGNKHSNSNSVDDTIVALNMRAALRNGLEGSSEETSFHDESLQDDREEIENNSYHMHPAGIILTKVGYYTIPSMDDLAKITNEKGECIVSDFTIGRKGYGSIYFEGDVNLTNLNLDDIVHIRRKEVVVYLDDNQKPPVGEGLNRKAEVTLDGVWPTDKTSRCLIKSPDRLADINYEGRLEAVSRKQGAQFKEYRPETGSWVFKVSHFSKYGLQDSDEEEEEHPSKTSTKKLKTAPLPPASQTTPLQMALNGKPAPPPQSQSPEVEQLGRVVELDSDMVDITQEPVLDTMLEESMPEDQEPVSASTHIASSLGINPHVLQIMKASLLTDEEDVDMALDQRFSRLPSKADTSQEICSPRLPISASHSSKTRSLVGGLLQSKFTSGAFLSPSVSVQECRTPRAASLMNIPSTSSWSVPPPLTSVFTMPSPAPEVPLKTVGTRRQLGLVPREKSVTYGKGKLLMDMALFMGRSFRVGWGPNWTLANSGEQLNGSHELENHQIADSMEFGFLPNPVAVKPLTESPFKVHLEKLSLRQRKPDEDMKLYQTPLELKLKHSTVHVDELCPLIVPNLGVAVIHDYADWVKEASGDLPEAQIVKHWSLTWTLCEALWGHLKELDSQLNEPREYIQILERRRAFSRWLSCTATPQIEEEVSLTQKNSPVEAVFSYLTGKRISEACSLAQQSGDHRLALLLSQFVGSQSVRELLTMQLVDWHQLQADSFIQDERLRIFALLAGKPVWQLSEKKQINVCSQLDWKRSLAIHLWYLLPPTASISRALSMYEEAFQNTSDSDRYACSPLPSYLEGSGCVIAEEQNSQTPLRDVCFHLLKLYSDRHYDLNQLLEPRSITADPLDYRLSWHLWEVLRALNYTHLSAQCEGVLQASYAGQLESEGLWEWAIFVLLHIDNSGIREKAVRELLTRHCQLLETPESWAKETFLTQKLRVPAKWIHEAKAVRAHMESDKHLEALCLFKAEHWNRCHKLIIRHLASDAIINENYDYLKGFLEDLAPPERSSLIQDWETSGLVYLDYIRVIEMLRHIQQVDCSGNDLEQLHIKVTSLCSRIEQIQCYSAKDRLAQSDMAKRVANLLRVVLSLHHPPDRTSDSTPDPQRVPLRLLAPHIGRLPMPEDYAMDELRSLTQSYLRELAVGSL
Sequence of UniProt Q9H1E3 (Q9H1E3 whole entry): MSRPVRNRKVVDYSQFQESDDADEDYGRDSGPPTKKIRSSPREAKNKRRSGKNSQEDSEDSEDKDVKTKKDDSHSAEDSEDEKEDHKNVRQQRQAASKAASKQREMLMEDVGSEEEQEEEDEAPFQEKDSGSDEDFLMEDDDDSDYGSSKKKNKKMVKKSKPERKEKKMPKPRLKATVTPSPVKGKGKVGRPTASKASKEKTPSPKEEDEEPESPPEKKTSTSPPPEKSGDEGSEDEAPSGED
Sequence of UniProt P49902 (P49902 whole entry): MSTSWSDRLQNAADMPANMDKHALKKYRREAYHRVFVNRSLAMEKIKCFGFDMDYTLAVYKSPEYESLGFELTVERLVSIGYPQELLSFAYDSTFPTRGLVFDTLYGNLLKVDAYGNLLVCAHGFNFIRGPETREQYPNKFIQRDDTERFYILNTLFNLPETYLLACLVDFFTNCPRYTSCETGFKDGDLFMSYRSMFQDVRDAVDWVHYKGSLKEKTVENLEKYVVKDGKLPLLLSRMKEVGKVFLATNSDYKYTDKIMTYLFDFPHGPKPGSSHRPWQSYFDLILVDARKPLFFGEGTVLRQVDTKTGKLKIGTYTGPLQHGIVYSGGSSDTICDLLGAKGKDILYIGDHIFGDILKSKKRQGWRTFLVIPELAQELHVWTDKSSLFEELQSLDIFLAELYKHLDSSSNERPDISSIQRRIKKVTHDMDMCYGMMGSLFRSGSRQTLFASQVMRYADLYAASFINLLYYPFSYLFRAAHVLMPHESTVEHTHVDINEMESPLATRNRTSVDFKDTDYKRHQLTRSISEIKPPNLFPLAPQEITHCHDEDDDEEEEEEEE
Sequence of UniProt Q9Y6R0 (Q9Y6R0 whole entry): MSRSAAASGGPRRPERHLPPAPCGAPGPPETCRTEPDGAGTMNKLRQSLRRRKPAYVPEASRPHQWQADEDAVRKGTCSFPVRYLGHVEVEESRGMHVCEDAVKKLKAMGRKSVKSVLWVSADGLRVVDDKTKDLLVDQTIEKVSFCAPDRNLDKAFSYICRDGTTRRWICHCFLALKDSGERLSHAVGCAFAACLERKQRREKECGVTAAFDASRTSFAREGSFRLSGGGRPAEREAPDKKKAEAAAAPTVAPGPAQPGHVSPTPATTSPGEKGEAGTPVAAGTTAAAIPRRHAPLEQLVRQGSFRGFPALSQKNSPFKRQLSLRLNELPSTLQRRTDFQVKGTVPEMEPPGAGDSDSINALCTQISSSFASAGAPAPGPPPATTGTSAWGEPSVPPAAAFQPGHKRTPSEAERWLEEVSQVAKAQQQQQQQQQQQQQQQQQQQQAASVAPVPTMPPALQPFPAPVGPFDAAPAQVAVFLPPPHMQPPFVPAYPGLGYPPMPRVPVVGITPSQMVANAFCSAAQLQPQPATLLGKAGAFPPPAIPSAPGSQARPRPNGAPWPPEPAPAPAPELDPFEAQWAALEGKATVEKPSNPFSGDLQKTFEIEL
Sequence of UniProt Q8WVJ2 (Q8WVJ2 whole entry): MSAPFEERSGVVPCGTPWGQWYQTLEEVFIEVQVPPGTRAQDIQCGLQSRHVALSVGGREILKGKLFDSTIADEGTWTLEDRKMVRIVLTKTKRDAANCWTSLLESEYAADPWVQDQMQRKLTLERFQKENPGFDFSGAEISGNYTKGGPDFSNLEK
Sequence of UniProt Q8NFH4 (Q8NFH4 whole entry): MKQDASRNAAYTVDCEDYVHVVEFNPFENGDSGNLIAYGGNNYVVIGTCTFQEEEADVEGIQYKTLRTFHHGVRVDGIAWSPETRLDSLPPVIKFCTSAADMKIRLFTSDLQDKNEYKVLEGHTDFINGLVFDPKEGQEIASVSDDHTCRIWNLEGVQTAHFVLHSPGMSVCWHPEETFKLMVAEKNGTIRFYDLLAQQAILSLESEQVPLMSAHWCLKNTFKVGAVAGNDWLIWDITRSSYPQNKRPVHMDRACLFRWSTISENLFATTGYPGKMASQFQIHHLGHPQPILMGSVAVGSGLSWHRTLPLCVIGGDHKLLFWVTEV
Sequence of UniProt Q9NZJ9 (Q9NZJ9 whole entry): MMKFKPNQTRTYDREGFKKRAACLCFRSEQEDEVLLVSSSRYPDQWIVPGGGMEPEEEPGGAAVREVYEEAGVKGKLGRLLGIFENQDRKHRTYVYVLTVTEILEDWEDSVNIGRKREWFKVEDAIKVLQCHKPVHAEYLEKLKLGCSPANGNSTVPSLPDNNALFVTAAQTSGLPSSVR
Sequence of UniProt Q9Y5A7 (Q9Y5A7 whole entry): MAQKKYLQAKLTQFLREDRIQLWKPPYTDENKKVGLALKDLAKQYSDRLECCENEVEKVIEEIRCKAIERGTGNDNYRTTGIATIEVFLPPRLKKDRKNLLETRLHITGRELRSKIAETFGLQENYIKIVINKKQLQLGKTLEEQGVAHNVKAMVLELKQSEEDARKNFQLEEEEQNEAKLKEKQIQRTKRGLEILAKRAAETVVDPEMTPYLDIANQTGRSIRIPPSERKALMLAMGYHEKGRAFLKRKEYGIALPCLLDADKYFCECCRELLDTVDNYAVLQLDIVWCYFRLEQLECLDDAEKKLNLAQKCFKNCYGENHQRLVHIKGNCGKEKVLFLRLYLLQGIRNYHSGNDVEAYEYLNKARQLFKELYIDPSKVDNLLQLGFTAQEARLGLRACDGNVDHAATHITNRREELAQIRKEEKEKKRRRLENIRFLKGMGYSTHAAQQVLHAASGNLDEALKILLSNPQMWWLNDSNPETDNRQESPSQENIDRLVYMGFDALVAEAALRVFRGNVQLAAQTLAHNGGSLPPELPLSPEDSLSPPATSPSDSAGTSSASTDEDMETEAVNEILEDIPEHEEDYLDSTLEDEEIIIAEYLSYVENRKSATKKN

| Target | thermal stability z-score (lipoamide; [1]) | thermal stability z-score (lipoamide; arsenate co-treatment: none) | thermal stability z-score (potassium arsenate) |
| --- | --- | --- | --- |
| NSMCE4A (UniProt Q9NXX6) | -0.245 | -0.35 | -0.055 |
| NSRP1 (UniProt Q9H0G5) | 0.844 | 0.0777 | 1.07 |
| NSUN2 (UniProt Q08J23) | -1.4 | -0.353 | -0.192 |
| NSUN4 (UniProt Q96CB9) | -0.26 | 0.337 | -0.318 |
| NSUN5 (UniProt Q96P11) | 0.469 | -0.155 | 0.136 |
| NSUN6 (UniProt Q8TEA1) | -0.141 | -0.366 | -0.526 |
| NT5C2 (UniProt P49902) | 0.892 | -0.608 | -0.0391 |
| NT5C3A (UniProt Q9H0P0) | 0.0681 | 0.155 | -1.77 |
| NT5C (UniProt Q8TCD5) | -0.442 | -0.516 | -0.982 |
| NT5DC1 (UniProt Q5TFE4) | 0.0662 | -0.687 | -0.749 |
| NT5DC2 (UniProt Q9H857) | 0.0403 | -0.251 | 0.13 |
| NT5DC3 (UniProt Q86UY8) | 0.036 | -0.0265 | -0.179 |
| NTHL1 (UniProt P78549) | 0.00215 | -0.00667 | -0.137 |
| NTMT1 (UniProt Q9BV86) | -0.319 | -0.204 | -0.137 |
| NTPCR (UniProt Q9BSD7) | -0.0779 | -0.905 | -0.753 |
| NUB1 (UniProt Q9Y5A7) | -0.391 | 0.421 | 1.15 |
| NUBP1 (UniProt P53384) | -0.23 | 0.385 | -0.302 |
| NUBP2 (UniProt Q9Y5Y2) | 0.35 | -0.855 | -0.461 |
| NUBPL (UniProt Q8TB37) | -0.216 | -0.498 | -0.262 |
| NUCB1 (UniProt Q02818) | -0.169 | -0.102 | -0.222 |
| NUCKS1 (UniProt Q9H1E3) | 0.697 | 0.845 | 0.5 |
| NUDC (UniProt Q9Y266) | 0.104 | 0.205 | 0.573 |
| NUDCD1 (UniProt Q96RS6) | -0.287 | -0.282 | -0.0861 |
| NUDCD2 (UniProt Q8WVJ2) | 0.599 | 0.779 | 0.58 |
| NUDCD3 (UniProt Q8IVD9) | -0.592 | -0.183 | 0.339 |
| NUDT1 (UniProt P36639) | 0.505 | 0.0984 | -0.00492 |
| NUDT2 (UniProt P50583) | -0.303 | -0.0026 | -0.0285 |
| NUDT3 (UniProt O95989) | 0.511 | 0.241 | -0.213 |

| Target | thermal stability z-score (lipoamide; [1]) | thermal stability z-score (lipoamide; arsenate co-treatment: none) | thermal stability z-score (potassium arsenate) |
| --- | --- | --- | --- |
| NUDT4 (UniProt Q9NZJ9) | -0.239 | -0.659 | -0.881 |
| NUDT5 (UniProt Q9UKK9) | 0.871 | 0.881 | 0.191 |
| NUDT9 (UniProt Q9BW91) | -0.674 | -0.346 | 0.0652 |
| NUDT12 (UniProt Q9BQG2) | 0.0414 | 0.0448 | 0.253 |
| NUDT15 (UniProt Q9NV35) | 0.686 | 0.121 | -0.373 |
| NUDT16 (UniProt Q96DE0) | 0.938 | 0.232 | -0.335 |
| NUDT19 (UniProt A8MXV4) | -0.133 | 0.126 | -0.208 |
| NUDT21 (UniProt O43809) | 1.57 | 0.0301 | -0.633 |
| NUF2 (UniProt Q9BZD4) | -0.884 | -0.901 | 2.02 |
| NUFIP2 (UniProt Q7Z417) | 0.354 | 0.487 | 1.08 |
| NUMA1 (UniProt Q14980) | 0.34 | 0.207 | -1.48 |
| NUMB (UniProt P49757) | -0.402 | 0.201 | -2.09 |
| NUMBL (UniProt Q9Y6R0) | 0.0444 | 0.451 | -1.68 |
| NUP35 (UniProt Q8NFH5) | 0.043 | -0.376 | 1.25 |
| NUP37 (UniProt Q8NFH4) | 0.338 | -0.0489 | 0.82 |
| NUP43 (UniProt Q8NFH3) | 2.43 | 0.779 | 1.58 |
| NUP50 (UniProt Q9UKX7) | 1.4 | 1.06 | 0.502 |
| NUP54 (UniProt Q7Z3B4) | 0.342 | 0.00636 | 0.309 |
| NUP58 (UniProt Q9BVL2) | 2.2 | 0.178 | 0.865 |
| NUP62 (UniProt P37198) | -0.129 | -0.358 | 0.329 |
| NUP85 (UniProt Q9BW27) | 0.16 | 0.113 | 0.613 |
| NUP88 (UniProt Q99567) | -0.607 | -0.513 | 0.549 |
| NUP93 (UniProt Q8N1F7) | -0.614 | -0.482 | 0.232 |
| NUP98 (UniProt P52948) | -0.415 | -0.292 | 0.214 |
| NUP107 (UniProt P57740) | -0.163 | -0.0082 | 0.77 |
| NUP133 (UniProt Q8WUM0) | -0.312 | -0.456 | -0.139 |
| NUP153 (UniProt P49790) | 0.99 | 0.627 | 3.83 |

Source: the supplement of paper PMC12463676, “Small-molecule dissolution of stress granules by redox modulation benefits ALS models” (Nature Chemical Biology, 2025)
